Experimental data from patent publication US10695482B2, “Cartridge and method for increasing myocardial function” (SeaStar Medical, Inc., priority 2011, dated 2020).

Key:
[1] = system: leukocytes in porcine blood; experiment: Microscopic flow chamber: leukocyte interaction with polysulfone membrane; type: cell-based, pig
From the text: A custom microscopic flow chamber system was set up to enable microscopic analysis of leukocyte interaction with the SCD membrane. The flow chamber consisted of a polycarbonate housing with an inlet and outlet for perfusion. A polysulfone membrane was affixed to the polycarbonate block with a gasket which directed shear flow. The thickness of the gasket (100 μm) along with the length (2 cm) and the width of the channel (1.5 mm) determined the volume of the flow chamber. Microscopic imaging was accomplished through an optical window made up of a cover glass affixed to the bottom of the polycarbonate block. Either isolated blood or purified leukocytes were used for this study.
Isolated blood was prone to activation from excessive handling. Thus, 5 mL of fresh heparinized porcine blood was minimally manipulated prior to the flow chamber study. Briefly, leukocytes were fluorescently labeled using 50 μg/mL of Hoechst 33342 dye. Further, the leukocytes were activated by adding 1 μg/ml lipopolysaccharide (LPS) directly to the blood samples. […] Blood passed through the flow chamber at a rate of 20 μL/min with calculated shear forces between 1-10 dynes/cm^2. For each isolated blood sample, sequences were acquired in triplicate.
Microscopic analysis of cell capture events was accomplished using either a Zeiss Axiovert 200M or Axio-Observer epifluorescence microscope equipped with a microscope stage-top incubator to control environmental temperature and CO2 content. Fluorescence images were acquired with either a Zeiss MRm3 or an Icc1 camera at a frequency of 1 frame/second for 5 minutes, for analysis of leukocyte/membrane interaction, and at 1 frame/minute for 1 hour sequences, for analysis of long term leukocyte attachment. Frame by frame evaluation of leukocyte rolling, attachment and detachment of leukocytes was carried out to determine the total number and duration of these phenomena. An attachment event was defined as when a leukocyte appeared in the same location for multiple frames within a sequence. […]

[2] = system: leukocytes in human whole blood; experiment: In vitro whole blood leukocyte activation assay; type: cell-based; conditions: for CD11b: n = 3; for IL-10: n = 4; for IL-8: n = 5; for IL-6: n = 7
Description: Heparinized human whole blood was added to tubes with or without lipopolysaccharide (LPS) (10 μg/mL) or formyl-Methionyl-Leucyl-Phenylalanine (fMLF, 50 nM). […] The release of IL-6, IL-8, or IL-10 was measured using commercially available ELISA kits from R&D Systems. The release of elastase was measured using a commercially available ELISA kit from Bender MedSystems. The release of lactoferrin was measured using a commercially available ELISA kit from EMD Chemicals. […] Samples were incubated for various times at 37° C. and 5% CO2. CD11b activation was measured using an FITC-conjugated mouse anti-human antibody (AbD Serotech) and evaluated on an Accuri C6 flow cytometer.

Compound | persistent leukocyte adhesion events ([1]; 1 hour sequences, LPS and citrate versus LPS only, preliminary analysis) | rolling events ([1]; LPS and citrate treated blood) | leukocyte attachment to polysulfone membranes during shear flow ([1]; LPS-activated blood, low ionized calcium, FIG. 17) | CD11b ([2]; Baseline) [MFI × 10^3] | IL-10 ([2]; Baseline) [ng/mL] | IL-8 ([2]; Baseline) | IL-6 ([2]; Baseline) [ng/mL] | CD11b ([2]; Stimulated (LPS, fMLF)) [MFI × 10^3] | IL-10 ([2]; Stimulated (LPS, fMLF)) [ng/mL] | IL-8 ([2]; Stimulated (LPS, fMLF)) [ng/mL] | IL-6 ([2]; Stimulated (LPS, fMLF)) [ng/mL]
O=C(O)CC(O)(CC(=O)O)C(=O)O [Citrate] | far fewer persistent leukocyte adhesion events | increase in rolling events | statistically significant decrease in leukocyte attachment |  |  |  |  |  |  |  | 
Heparin |  |  |  | 22.55 ± 1.06 | 0.11 ± 0.07 | 0.0 ± 0^ ng/mL | 0.18 ± 0.04 | 53.43 ± 3.12 | 3.74 ± 0.94 | 34.18 ± 6.66 | 65.42 ± 19.77
